Assay results from publication PMC8742467, “Therapeutical interference with the epigenetic landscape of germ cell tumors: a comparative drug study and new mechanistical insights” (Clinical Epigenetics, 2022).
Values belong to the compound of their own block, whether it stands above or below them.

Key:
[1] = system: urothelial carcinoma (UC) cell lines; experiment: XTT cell viability assay, UC cell lines; type: cell-based, Human
Protocol: (§1) The […] (XTT) assays were performed as described previously. In summary, for GCT and fibroblast cell lines 5 × 10^3 cells (3 × 10^3 for UC, PCa and RCC cell lines) per 96-well were seeded and different drug concentrations (see Additional file 2: Fig. S2, Additional file 3: Fig. S3) or corresponding solvents were added to the cells the following day. For drug details see Additional file 12: Table S2 C. Each condition was analyzed in four technical replicates and EC50 values were calculated by GraphPad Prism v8.

[2] = system: prostate cancer (PCa) cell lines; experiment: XTT cell viability assay, PCa cell lines; type: cell-based, Human
Protocol: as §1

[3] = system: GCT cells; experiment: Flow cytometry cell cycle (PI), GCT cells; type: cell-based, Human; conditions: EC50, 16 h
How it was run: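 Apoptosis: cells stained with Annexin V-FITC plus 15 µg PI in binding buffer, 15 min dark at room temperature. Cell cycle: cells fixed in ice-cold 70% ethanol, stained with 2 µg/ml PI and 200 µg/ml RNaseA in PBS. At least 5 × 10^4 cells counted by flow cytometry.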

[4] = system: CC (choriocarcinoma) cell lines JAR, JEG-3, BeWo; experiment: XTT cell viability assay, CC cell lines; type: cell-based; conditions: Homo sapiens; after 48 h, mean per entity
Protocol: as §1

[5] = system: CC (JAR); experiment: Flow cytometry apoptosis (Annexin V/PI), CC; type: cell-based, Human; conditions: EC50, 16 h
Protocol: (§2) For Annexin V/PI staining, cells were washed with Annexin V Binding Buffer before being resuspended in 70 µl Annexin V Binding Buffer and 2.5 μl Annexin V FITC-conjugate (both Miltenyi Biotec, Bergisch Gladbach, Germany) and 15 µg PI (Sigma-Aldrich, Taufkirchen, Germany) and incubated in the dark at room temperature for 15 min. 500 µl of Annexin V Binding Buffer was added before measurement. For the cell cycle analysis, cells were washed with PBS (phosphate buffered saline), fixed by ice cold 70% ethanol and stained with 2 µg/ml PI and 200 µg/ml RNaseA (Quiagen, Hilden, Germany 100 mg/ml) in PBS shortly before every measurement. At least 5 × 10^4 cells were counted and analyzed using the MACSQuant software v 2.13.0.

[6] = system: YST (GCT72); experiment: Flow cytometry apoptosis (Annexin V/PI), YST; type: cell-based, Human; conditions: EC50, 16 h
Protocol: as §2

[7] = system: fibroblast control cells; experiment: Flow cytometry apoptosis (Annexin V/PI), fibroblasts; type: cell-based, Human; conditions: EC50, 16 h
Protocol: as §2

[8] = system: H2AK119ub in 2102EP cells; experiment: Western blot of histone extracts; type: cell-based, Human; conditions: after 48 h of treatment
Protocol: Western Blots were performed as described previously. In total, 20 µg of whole cell protein lysates or 3 µg of histone extract were used for western blotting. β-Actin was used as housekeeper and loading control for whole cell lysates. Western blots of histone extracts were stained with Coomassie Brilliant Blue R 250 (Roth, Karlsruhe, Germany) and total H3 or H4 antibody to verify equal loading. For antibody details, see supplement (Additional file 12: Table S2 D). The ChemiDoc Imaging System (Bio-Rad Laboratories, Feldkirchen, Germany) was used for detection. Pixel density was analyzed using the ‘Image Lab’ software provided by Bio-Rad.

[9] = Homo sapiens; mean of three cell lines, 48 h
[10] = Homo sapiens, 48 h, mean of three cell lines

SMILES: CN1C(=O)[C@@]23C[C@]4([C@]56C[C@@]78SS[C@@](CO)(C(=O)N7[C@H]5Nc5ccccc56)N(C)C8=O)c5ccccc5N[C@@H]4N2C(=O)[C@]1(CO)SS3 [Chaetocin]
EC50 [1, 9]: 99.6 nM
EC50 [2, 9]: 233 nM
cell cycle phase accumulation in GCT cells [3]: accumulation in the G2/M phase

SMILES: CCCc1cc(C)[nH]c(=O)c1CNC(=O)c1cc(-c2ccnc(N3CCN(C)CC3)c2)cc2c1cnn2C(C)C [GSK343]
EC50 [4]: 10400 nM
apoptosis induction in JAR [5]: negligible
apoptosis induction in GCT72 [6]: negligible

SMILES: O=C1C(=Cc2cccnc2)C(=O)c2ccccc21 [PRT4165]
apoptosis induction in fibroblast control cells [7]: only a weak apoptosis induction
H2AK119ub by western blot [8]: decreased H2AK119ub

EC50 [1, 10]: 17.2 nM
EC50 ([1]; mean of three cell lines, 48 h): 17.2 nM
EC50 [2, 10]: 22.2 nM
EC50 ([2]; mean of three cell lines, 48 h): 22.2 nM
SMILES: Cn1cc(CNCC2CCN(c3ncc(C(=O)NO)cn3)CC2)c2ccccc21 [Quisinostat]
EC50 [4]: 6.94 nM
cell cycle phase accumulation in GCT cells [3]: accumulation in the G2/M phase
